Experimental data from ChEMBL document CHEMBL3870360, “GluN2A-Selective Pyridopyrimidinone Series of NMDAR Positive Allosteric Modulators with an Improved in Vivo Profile” (ACS Med Chem Lett, 2017).
In brackets after ≈: the same amount, converted by molar mass. Values belong to the molecule of their own block, whether it stands above or below them.

How the values were obtained:
[1] = biological target: T1, Glutamate receptor 2 (Homo sapiens, UniProt P42262); test: Positive allosteric modulation of human GluA2 receptor flip isoform assessed as increase in glutamate-induced calcium flux measured at time interval of 5 mins in presence of saturating glycine by calcium dye-based fluorescence assay; format: Functional, single protein
T1 sequence (P42262 whole entry, canonical isoform): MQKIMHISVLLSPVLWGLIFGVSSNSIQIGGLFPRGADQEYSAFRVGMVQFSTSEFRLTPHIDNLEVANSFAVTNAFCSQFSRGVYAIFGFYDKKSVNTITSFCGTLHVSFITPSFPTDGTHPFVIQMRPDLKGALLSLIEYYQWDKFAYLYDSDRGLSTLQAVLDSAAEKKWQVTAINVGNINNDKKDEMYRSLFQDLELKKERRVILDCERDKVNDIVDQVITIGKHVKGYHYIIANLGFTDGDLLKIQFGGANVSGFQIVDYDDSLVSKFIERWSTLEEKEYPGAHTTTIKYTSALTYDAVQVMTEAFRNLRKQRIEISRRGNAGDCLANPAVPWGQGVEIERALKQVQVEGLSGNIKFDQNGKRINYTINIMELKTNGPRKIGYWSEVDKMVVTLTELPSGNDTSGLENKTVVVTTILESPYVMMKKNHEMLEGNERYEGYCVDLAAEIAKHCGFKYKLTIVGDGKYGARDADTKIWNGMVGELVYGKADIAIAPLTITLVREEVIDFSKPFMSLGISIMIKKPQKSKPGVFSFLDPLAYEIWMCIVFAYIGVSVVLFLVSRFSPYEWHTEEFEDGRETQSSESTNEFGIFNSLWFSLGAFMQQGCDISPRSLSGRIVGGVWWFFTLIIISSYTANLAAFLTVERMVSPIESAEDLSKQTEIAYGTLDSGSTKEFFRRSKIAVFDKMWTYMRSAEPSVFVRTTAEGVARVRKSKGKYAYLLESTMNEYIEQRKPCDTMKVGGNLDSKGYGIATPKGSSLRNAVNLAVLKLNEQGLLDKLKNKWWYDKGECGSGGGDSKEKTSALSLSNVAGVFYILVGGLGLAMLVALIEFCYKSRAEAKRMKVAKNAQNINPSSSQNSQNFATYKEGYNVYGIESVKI

[2] = biological target: T1, Glutamate receptor 2; test: Positive allosteric modulation of human GluA2 receptor flip isoform assessed as increase in glutamate-induced calcium flux at 125 uM measured at time interval of 5 mins in presence of saturating glycine by calcium dye-based fluorescence assay relative to glutamate; format: single protein
[3] = biological target: T1, Glutamate receptor 2; test: Positive allosteric modulation of human GluA2 receptor flop isoform assessed as increase in glutamate-induced calcium flux measured at time interval of 5 mins in presence of saturating glycine by calcium dye-based fluorescence assay; format: Functional, single protein
[4] = biological target: T1, Glutamate receptor 2; test: Positive allosteric modulation of human GluA2 receptor flop isoform assessed as increase in glutamate-induced calcium flux at 125 uM measured at time interval of 5 mins in presence of saturating glycine by calcium dye-based fluorescence assay relative to glutamate; format: Functional, single protein
[5] = biological target: Glutamate NMDA receptor; GRIN1/GRIN2B (Homo sapiens, UniProt Q05586+Q13224); test: Positive allosteric modulation of GluN1/GluN2B receptor (unknown origin) expressed in HEK293 cells assessed as increase in glutamate-induced calcium flux at 125 uM measured at time interval of 5 mins in presence of saturating glycine by calcium dye-based fluorescence assay relative to glutamate; format: ADME, cell-based
Glutamate NMDA receptor; GRIN1/GRIN2B, sequence (Q13224 whole entry, other chains not shown): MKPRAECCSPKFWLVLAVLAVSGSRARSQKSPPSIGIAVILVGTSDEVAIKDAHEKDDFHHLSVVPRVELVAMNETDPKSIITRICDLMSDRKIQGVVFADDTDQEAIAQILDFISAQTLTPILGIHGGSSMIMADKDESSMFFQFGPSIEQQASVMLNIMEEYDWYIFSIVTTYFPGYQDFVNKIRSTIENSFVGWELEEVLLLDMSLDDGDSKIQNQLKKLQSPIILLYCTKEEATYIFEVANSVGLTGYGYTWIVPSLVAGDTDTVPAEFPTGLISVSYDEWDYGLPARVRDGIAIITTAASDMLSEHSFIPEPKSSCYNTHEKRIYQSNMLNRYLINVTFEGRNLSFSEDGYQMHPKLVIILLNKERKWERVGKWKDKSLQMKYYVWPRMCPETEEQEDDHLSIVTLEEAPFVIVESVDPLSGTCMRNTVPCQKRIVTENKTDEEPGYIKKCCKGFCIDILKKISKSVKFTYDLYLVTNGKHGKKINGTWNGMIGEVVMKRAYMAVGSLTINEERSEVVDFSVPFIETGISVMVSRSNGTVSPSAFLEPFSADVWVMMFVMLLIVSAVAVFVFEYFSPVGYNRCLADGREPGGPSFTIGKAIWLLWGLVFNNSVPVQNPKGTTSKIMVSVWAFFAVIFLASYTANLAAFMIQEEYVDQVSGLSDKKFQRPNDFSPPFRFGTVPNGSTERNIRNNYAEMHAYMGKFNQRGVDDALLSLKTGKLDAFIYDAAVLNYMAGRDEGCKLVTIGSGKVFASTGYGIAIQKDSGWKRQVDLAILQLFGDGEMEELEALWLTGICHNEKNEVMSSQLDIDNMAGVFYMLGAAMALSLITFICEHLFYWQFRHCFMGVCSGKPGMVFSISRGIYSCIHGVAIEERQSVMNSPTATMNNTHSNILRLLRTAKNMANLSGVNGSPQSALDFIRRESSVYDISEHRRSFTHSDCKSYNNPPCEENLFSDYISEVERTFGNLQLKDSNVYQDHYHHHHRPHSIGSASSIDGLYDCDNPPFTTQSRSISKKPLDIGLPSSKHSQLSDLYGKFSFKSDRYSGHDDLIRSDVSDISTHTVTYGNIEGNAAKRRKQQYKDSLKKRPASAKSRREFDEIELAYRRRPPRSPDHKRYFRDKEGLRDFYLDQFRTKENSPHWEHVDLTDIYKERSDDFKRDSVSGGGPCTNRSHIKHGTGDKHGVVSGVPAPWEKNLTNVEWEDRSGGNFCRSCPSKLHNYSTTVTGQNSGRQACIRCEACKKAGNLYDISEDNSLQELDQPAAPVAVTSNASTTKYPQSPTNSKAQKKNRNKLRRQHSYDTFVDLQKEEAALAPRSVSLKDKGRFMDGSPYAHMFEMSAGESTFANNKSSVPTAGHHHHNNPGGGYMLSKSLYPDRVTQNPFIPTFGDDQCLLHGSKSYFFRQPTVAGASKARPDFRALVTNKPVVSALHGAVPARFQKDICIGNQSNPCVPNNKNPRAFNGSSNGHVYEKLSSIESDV

[6] = biological target: Ionotropic glutamate receptor NMDA 1/2C (Homo sapiens, UniProt Q05586+Q14957); test: Positive allosteric modulation of GluN1/GluN2C receptor (unknown origin) assessed as increase in glutamate-induced calcium flux measured at time interval of 5 mins in presence of saturating glycine by calcium dye-based fluorescence assay
Ionotropic glutamate receptor NMDA 1/2C, sequence (Q14957 whole entry, other chains not shown): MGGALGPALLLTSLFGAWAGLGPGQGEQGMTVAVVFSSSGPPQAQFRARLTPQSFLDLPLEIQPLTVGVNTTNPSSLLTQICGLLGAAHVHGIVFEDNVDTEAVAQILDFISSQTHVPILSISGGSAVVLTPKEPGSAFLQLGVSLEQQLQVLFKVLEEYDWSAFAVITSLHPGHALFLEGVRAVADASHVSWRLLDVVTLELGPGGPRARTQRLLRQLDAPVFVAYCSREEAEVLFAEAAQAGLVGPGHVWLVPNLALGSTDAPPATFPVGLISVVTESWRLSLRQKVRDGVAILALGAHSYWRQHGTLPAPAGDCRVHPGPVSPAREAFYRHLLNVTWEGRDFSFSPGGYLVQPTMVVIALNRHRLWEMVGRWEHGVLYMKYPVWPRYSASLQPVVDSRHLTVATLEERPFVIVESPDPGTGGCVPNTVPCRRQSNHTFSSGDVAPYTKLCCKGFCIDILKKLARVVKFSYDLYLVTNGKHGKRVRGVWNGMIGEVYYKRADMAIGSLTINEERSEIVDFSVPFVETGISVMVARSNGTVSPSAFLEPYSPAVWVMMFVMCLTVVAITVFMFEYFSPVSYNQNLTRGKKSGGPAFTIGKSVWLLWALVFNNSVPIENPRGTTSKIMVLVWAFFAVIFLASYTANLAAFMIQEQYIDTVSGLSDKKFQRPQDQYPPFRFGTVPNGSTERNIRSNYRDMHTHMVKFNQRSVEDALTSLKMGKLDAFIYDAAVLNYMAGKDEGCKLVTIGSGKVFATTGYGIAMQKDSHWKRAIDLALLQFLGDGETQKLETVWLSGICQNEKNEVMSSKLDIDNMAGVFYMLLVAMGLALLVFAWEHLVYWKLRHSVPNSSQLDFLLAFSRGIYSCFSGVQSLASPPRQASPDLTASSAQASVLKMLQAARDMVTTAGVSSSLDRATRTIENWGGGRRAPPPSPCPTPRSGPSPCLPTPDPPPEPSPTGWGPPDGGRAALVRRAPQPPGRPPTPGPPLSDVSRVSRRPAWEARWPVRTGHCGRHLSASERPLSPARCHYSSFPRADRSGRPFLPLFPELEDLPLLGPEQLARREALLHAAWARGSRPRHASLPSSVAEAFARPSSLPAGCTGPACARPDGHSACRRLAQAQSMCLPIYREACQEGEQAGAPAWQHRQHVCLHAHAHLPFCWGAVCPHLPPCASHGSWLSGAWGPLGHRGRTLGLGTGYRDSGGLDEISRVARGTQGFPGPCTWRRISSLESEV

[7] = Protein binding in human plasma; format: ADME, cell-free; conditions: read-out: PPB (converted)
[8] = Protein binding in mouse plasma; format: ADME, cell-free; conditions: read-out: PPB (converted)
[9] = tested on: MDR1 (human); test: Efflux ratio of permeability from basolateral to apical over apical to basolateral side in MDCK cells expressing human MDR1; format: ADME, cell-based, Canis lupus familiaris; conditions: dog
[10] = biological target: Ionotropic glutamate receptor NMDA 1/2D (Homo sapiens, UniProt O15399+Q05586); test: Positive allosteric modulation of GluN1/GluN2D receptor (unknown origin) assessed as increase in glutamate-induced calcium flux measured at time interval of 5 mins in presence of saturating glycine by calcium dye-based fluorescence assay
Ionotropic glutamate receptor NMDA 1/2D, sequence (O15399 whole entry, other chains not shown): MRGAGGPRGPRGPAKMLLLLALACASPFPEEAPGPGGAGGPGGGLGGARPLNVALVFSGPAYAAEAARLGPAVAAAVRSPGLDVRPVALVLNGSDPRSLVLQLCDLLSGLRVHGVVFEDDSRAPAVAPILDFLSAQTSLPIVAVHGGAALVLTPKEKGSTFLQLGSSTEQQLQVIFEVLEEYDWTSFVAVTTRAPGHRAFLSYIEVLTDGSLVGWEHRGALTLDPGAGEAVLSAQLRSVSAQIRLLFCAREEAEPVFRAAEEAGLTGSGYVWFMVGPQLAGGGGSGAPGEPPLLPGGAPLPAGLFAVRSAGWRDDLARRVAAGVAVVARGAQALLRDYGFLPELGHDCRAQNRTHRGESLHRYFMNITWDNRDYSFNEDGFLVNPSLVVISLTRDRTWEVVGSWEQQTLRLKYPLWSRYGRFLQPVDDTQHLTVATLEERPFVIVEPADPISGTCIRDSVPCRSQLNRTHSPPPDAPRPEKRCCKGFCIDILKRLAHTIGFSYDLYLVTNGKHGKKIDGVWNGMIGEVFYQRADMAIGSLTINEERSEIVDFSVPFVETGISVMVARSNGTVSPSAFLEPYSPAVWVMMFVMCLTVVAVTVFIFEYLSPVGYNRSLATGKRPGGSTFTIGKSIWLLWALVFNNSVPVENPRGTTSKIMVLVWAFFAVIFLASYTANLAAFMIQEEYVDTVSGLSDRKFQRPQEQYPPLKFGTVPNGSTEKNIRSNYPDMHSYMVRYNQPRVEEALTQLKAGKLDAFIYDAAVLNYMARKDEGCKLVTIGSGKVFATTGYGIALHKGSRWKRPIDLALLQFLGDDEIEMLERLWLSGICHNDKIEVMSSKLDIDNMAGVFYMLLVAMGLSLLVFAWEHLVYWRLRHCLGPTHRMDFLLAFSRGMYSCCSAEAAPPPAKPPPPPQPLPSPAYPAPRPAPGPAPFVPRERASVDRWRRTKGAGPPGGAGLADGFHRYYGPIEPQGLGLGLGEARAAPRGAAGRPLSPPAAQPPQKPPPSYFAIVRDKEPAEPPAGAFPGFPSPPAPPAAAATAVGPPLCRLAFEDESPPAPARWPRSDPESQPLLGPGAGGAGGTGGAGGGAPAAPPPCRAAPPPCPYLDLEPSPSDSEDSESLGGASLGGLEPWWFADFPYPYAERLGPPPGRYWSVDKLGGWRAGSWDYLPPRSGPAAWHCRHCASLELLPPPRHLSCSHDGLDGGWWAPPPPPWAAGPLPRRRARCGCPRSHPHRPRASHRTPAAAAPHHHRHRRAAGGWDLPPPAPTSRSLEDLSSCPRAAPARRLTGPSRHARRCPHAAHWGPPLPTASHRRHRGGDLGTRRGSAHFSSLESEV

[11] = Drug uptake in mouse brain; format: ADME, tissue-based; conditions: in vivo
[12] = Clearance in mouse blood at 0.5 mg/kg, iv; format: ADME, organism-based
[13] = Unbound clearance in mouse blood at 0.5 mg/kg, iv; format: ADME, organism-based; conditions: in vivo
[14] = Half life in mouse at 0.5 mg/kg, iv; format: ADME, organism-based; conditions: in vivo
[15] = Volume of distribution at steady state in mouse at 0.5 mg/kg, iv; format: ADME, organism-based; conditions: in vivo, read-out: Vdss
[16] = Oral bioavailability in mouse at 5 mg/kg; format: ADME, organism-based; conditions: in vivo
[17] = Unbound AUClast in mouse at 5 mg/kg, po; format: ADME, organism-based; conditions: in vivo
[18] = Unbound Cmax in mouse at 5 mg/kg, po; format: ADME, organism-based; conditions: in vivo
[19] = Ratio of unbound concentration in brain to plasma in mouse at 5 mg/kg, po at 1 hr; format: ADME, organism-based; conditions: brain and plasma, read-out: K(p,uu,brain)
[20] = Selectivity ratio of EC50 for GluN1/GluN2B receptor (unknown origin) expressed in HEK293 cells to EC50 for GluN1/GluN2A receptor (unknown origin) expressed in CHO cells; format: cell-based; conditions: human
[21] = Selectivity ratio of EC50 for human GluA2 flip isoform receptor to EC50 for GluN1/GluN2A receptor (unknown origin) expressed in CHO cells; format: ADME, cell-based
[22] = Selectivity ratio of EC50 for human GluA2 flop isoform receptor to EC50 for GluN1/GluN2A receptor (unknown origin) expressed in CHO cells; format: ADME, cell-based
[23] = Activity at AMPA receptor in mouse hippocampal brain slices assessed as electrical stimulation-induced excitatory post synaptic potential at -70 mV holding potential by electrophysiology method; format: ADME
[24] = Lipophilicity, log D of the compound; format: physicochemical; conditions: octanol/water
[25] = Kinetic solubility of the compound; format: physicochemical; conditions: read-out: Kinetic_solubility
[26] = Ratio of fCmax in mouse at 5 mg/kg, po to EC50 for GluN2A receptor (unknown origin) expressed in CHO cells co-expressing GluN1 receptor
[27] = biological target: T2, Glutamate NMDA receptor; GRIN1/GRIN2A (Homo sapiens, UniProt Q05586+Q12879); test: Positive allosteric modulation of GluN1/GluN2A receptor (unknown origin) expressed in CHO cells assessed as increase in glutamate-induced calcium flux at 125 uM measured at time interval of 5 mins in presence of saturating glycine by calcium dye-based fluorescence assay relative to glutamate; format: cell-based
[28] = biological target: T2, Glutamate NMDA receptor; GRIN1/GRIN2A; test: Positive allosteric modulation of GluN1/GluN2A receptor (unknown origin) expressed in CHO cells assessed as increase in glutamate-induced calcium flux measured at time interval of 5 mins in presence of saturating glycine by calcium dye-based fluorescence assay; format: cell-based
[29] = biological target: T2, Glutamate NMDA receptor; GRIN1/GRIN2A; test: Deactivation of GluN1/GluN2A receptor (unknown origin) expressed in CHO cells assessed as time constant for signal decay at 1 uM preincubated followed by glutamate addition in presence of saturating glycine measured after glutamate removal by electrophysiology method; format: cell-based

SMILES: N#C[C@@H]1C[C@H]1c1c(Cl)ccc2nc(Cn3nc(C(F)(F)F)cc3Cl)cc(=O)n12
EC50 [1]: 45000 nM | Emax at 125 µM [2]: 61% | EC50 [3]: 49000 nM | Emax at 125 µM [4]: 67% | Emax at 125 µM [5]: 96% | EC50 [6]: 4700 nM | fraction unbound [7]: 0.056 | fraction unbound [8]: 0.076 | efflux ratio [9]: 1.6 | EC50 [10]: 9500 nM | Drug uptake [11]: 94.9% | clearance [12]: 10 mL/min/kg | CL free [13]: 132 mL/min/kg | half-life [14]: 8 h | Vd [15]: 7 L/kg | bioavailability [16]: 37% | fAUClast [17]: 0.53 µM·h | fCmax [18]: 0.06 µM | Kp uu at 1 h [19]: 0.67 | Ratio EC50 [20]: > 100 | Ratio EC50 [21]: > 1000 | Ratio EC50 [22]: > 1000 | EC50 [23]: > 15000 nM | logD [24]: 1.8 | solubility kinetic [25]: 43.5 µM (≈ 18.6 µg/mL) | Ratio [26]: 1.6

SMILES: Cc1sc2nc(Cn3nc(C(F)(F)F)cc3Cl)cc(=O)n2c1[C@@H]1C[C@H]1C#N
Emax [27]: 151% | Emax at 125 µM [2]: 91% | Emax at 125 µM [4]: 93%

SMILES: COc1ccc2nc(Cn3nc(C(F)(F)F)cc3Cl)cc(=O)n2c1[C@@H]1C[C@H]1C#N
EC50 [28]: 80 nM | Emax [27]: 120% | Emax at 125 µM [2]: 28% | Emax at 125 µM [4]: 15% | efflux ratio [9]: 3.2

SMILES: Cc1sc2nc(Cn3nc(C(F)(F)F)cc3Cl)cc(=O)n2c1-c1cncnc1
EC50 [28]: 1400 nM | Emax [27]: 88% | EC50 [1]: 9600 nM | Emax at 125 µM [2]: 28% | EC50 [3]: 1200 nM | Emax at 125 µM [4]: 9%

SMILES: CCNC(=O)c1c(C)sc2nc(Cn3nc(C(F)(F)F)cc3Cl)cc(=O)n12
Emax [27]: 120% | Emax at 125 µM [2]: 8% | Emax at 125 µM [4]: 16%

SMILES: N#C[C@@H]1C[C@H]1c1c(F)ccc2nc(Cn3nc(C(F)(F)F)cc3Cl)cc(=O)n12
EC50 [28]: 21 nM | Emax [27]: 151% | EC50 [1]: 3100 nM | Emax at 125 µM [2]: 67% | EC50 [3]: 460 nM | Emax at 125 µM [4]: 69% | efflux ratio [9]: 1.5

SMILES: CCNC(=O)c1c(C)ccc2nc(Cn3nc(C(F)(F)F)cc3Cl)cc(=O)n12
EC50 [28]: 2500 nM | Emax [27]: 129% | Emax at 125 µM [2]: 1% | Emax at 125 µM [4]: -1%

SMILES: Cc1ccc2nc(Cn3nc(C(F)(F)F)cc3Cl)cc(=O)n2c1-c1cncnc1
EC50 [28]: 9800 nM | Emax [27]: 84% | Emax at 125 µM [2]: 5% | Emax at 125 µM [4]: 3%

SMILES: Cc1ccc2nc(Cn3nc(C(F)(F)F)cc3Cl)cc(=O)n2c1[C@@H]1C[C@H]1C#N
EC50 [28]: 41 nM | Emax [27]: 137% | EC50 [1]: 67000 nM | Emax at 125 µM [2]: 66% | EC50 [3]: 31000 nM | Emax at 125 µM [4]: 63% | efflux ratio [9]: 2

SMILES: Cc1sc2nc(Cn3nc(C(F)(F)F)cc3Cl)cc(=O)n2c1C1CC1
EC50 [28]: 270 nM | Emax [27]: 116% | Emax at 125 µM [2]: 51% | Emax at 125 µM [4]: 32%

SMILES: Cc1ccc2nc(Cn3nc(C(F)(F)F)cc3Cl)cc(=O)n2c1C1CC1
EC50 [28]: 280 nM | Emax [27]: 107% | EC50 [1]: 1300 nM | Emax at 125 µM [2]: 7% | EC50 [3]: 2500 nM | Emax at 125 µM [4]: 3%

Further lines, results first:

Emax [27]: 142% | EC50 [1]: 27000 nM | Emax at 125 µM [2]: 27% | EC50 [3]: 16000 nM | Emax at 125 µM [4]: 77% | efflux ratio [9]: 2.1
SMILES: N#C[C@@H]1C[C@H]1c1cc(C(F)(F)F)cc2nc(Cn3nc(C(F)(F)F)cc3Cl)cc(=O)n12

Emax [27]: 144% | EC50 [1]: 3100 nM | Emax at 125 µM [2]: 86% | EC50 [3]: 210 nM | Emax at 125 µM [4]: 83% | efflux ratio [9]: 2.2
SMILES: Cc1cc([C@@H]2C[C@H]2C#N)n2c(=O)cc(Cn3nc(C(F)(F)F)cc3Cl)nc2c1

EC50 [28]: 24 nM | Emax [27]: 148% | EC50 [1]: 810 nM | Emax at 125 µM [2]: 90% | EC50 [3]: 410 nM | Emax at 125 µM [4]: 90%
SMILES: N#C[C@@H]1C[C@H]1c1cccc2nc(Cn3nc(C(F)(F)F)cc3Cl)cc(=O)n12

EC50 [28]: 130 nM | Emax [27]: 140% | EC50 [1]: 6700 nM | Emax at 125 µM [2]: 51% | EC50 [3]: 2200 nM | Emax at 125 µM [4]: 67% | efflux ratio [9]: 2.2
SMILES: COc1cc([C@@H]2C[C@H]2C#N)n2c(=O)cc(Cn3nc(C(F)(F)F)cc3Cl)nc2c1

TIME [29]: 0.000584 h | EC50 [23]: 5700 nM
SMILES: N#C[C@@H]1C[C@H]1c1c(C(F)(F)F)sc2nc(Cn3nc(C(F)(F)F)cc3Cl)cc(=O)n12
